Experimental data as given in patent publication US6420110B1, “Methods and reagents for isolating biologically active peptides” (GPC Biotech, Inc., priority 1998, dated 2002).

System: bovine capillary endothelial (BCE) cells
Assay: Inhibition of bFGF stimulated BCE cell proliferation in Transwells (CyQUANT)
Format: cell-based
Settings: 1 ng/ml bFGF, 72 hrs
Method: COS-7 cells were transfected with pAM9-myc, pAM9-RGD and pAM9-K1 plasmids, respectively, that direct the expression and secretion of the Myc epitope-6xHis, the RGD and the angiostatin first kringle domain peptides. The transfected COS-7 cells were co-incubated in Transwells with BCE cells whose proliferation was stimulated by 1 ng/ml bFGF. As controls, untransfected COS-7 cells and bFGF stimulated BCE cells were similarly co-incubated and synthetic Myc-6xHis and RGD peptides as well as purified K1 were added to the media at the indicated concentrations. The proliferation of the bFGF stimulated BCE cells were measured 72 hrs later using the fluorescent CyQUANT proliferation kit (Molecular Probes).

## CDCRGDCFC [RGD peptide, positive control]
Peptide secreted from transfected COS-7 cells co-incubated in Transwells
  inhibition of bFGF stimulated BCE cell proliferation: inhibited
Synthetic or purified peptide added to the media, untransfected COS-7 cells co-incubated
  inhibition of bFGF stimulated BCE cell proliferation: inhibited
